From ChEMBL document CHEMBL2146453, “Synthesis of novel ursolic acid heterocyclic derivatives with improved abilities of antiproliferation and induction of p53, p21waf1 and NOXA in pancreatic cancer cells” (Bioorg Med Chem, 2012)
Activity calls are given as the source filed them. No cut-off for these calls is given here.

Legend:
HepG2 = experiment: Cytotoxicity against human HepG2 cells after 72 hrs by MTT assay; format: functional, cell-based; conditions: HepG2, 72 h
PC-3 = experiment: Cytotoxicity against human PC3 cells after 72 hrs by MTT assay; format: functional, cell-based; conditions: PC-3, 72 h
MIA PaCa-2 = experiment: Cytotoxicity against human MIAPaCa2 cells after 72 hrs by MTT assay; format: functional, cell-based; conditions: MIA PaCa-2, 72 h
PANC-1 = experiment: Cytotoxicity against human PANC1 cells after 72 hrs by MTT assay; format: functional, cell-based; conditions: PANC-1, 72 h
A549 = experiment: Cytotoxicity against human A549 cells after 72 hrs by MTT assay; format: functional, cell-based; conditions: A549, 72 h
MCF7 = experiment: Cytotoxicity against human MCF7 cells after 72 hrs by MTT assay; format: functional, cell-based; conditions: MCF7, 72 h
ASPC1 [1] = experiment: Cytotoxicity against human AsPC1 cells after 72 hrs by MTT assay; format: functional, cell-based; conditions: ASPC1, 72 h
ASPC1 [2] = experiment: Cell cycle arrest in human AsPC1 cells assessed as G2/M phase cells at 4 uM after 24 hrs by flow cytometric analysis (reference value: 20.7%); format: functional
ASPC1 [3] = experiment: Cell cycle arrest in human AsPC1 cells assessed as S phase cells at 8 uM after 24 hrs by flow cytometric analysis (reference value: 12.6%); format: functional
ASPC1 [4] = experiment: Cell cycle arrest in human AsPC1 cells assessed as G1 phase cells at 4 uM after 24 hrs by flow cytometric analysis (reference value: 25.4%); format: functional
ASPC1 [5] = experiment: Cell cycle arrest in human AsPC1 cells assessed as G2/M phase cells at 8 uM after 24 hrs by flow cytometric analysis (reference value: 20.7%); format: functional
ASPC1 [6] = experiment: Cell cycle arrest in human AsPC1 cells assessed as S phase cells at 4 uM after 24 hrs by flow cytometric analysis (reference value: 12.6%); format: functional
ASPC1 [7] = experiment: Cell cycle arrest in human AsPC1 cells assessed as G2/M phase cells at 6 uM after 24 hrs by flow cytometric analysis (reference value: 20.7%); format: functional
ASPC1 [8] = experiment: Cell cycle arrest in human AsPC1 cells assessed as S phase cells at 6 uM after 24 hrs by flow cytometric analysis (reference value: 12.6%); format: functional
ASPC1 [9] = experiment: Cell cycle arrest in human AsPC1 cells assessed as G2/M phase cells at 2 uM after 24 hrs by flow cytometric analysis (reference value: 20.7%); format: functional
ASPC1 [10] = experiment: Upregulation of p53 in human AsPC1 cells at 2 to 10 uM after 24 hrs by Western blot analysis; format: functional, cell-based
ASPC1 [11] = experiment: Cell cycle arrest in human AsPC1 cells assessed as G1 phase cells at 2 uM after 24 hrs by flow cytometric analysis (reference value: 25.4%); format: functional
ASPC1 [12] = experiment: Cell cycle arrest in human AsPC1 cells assessed as S phase cells at 10 uM after 24 hrs by flow cytometric analysis (reference value: 12.6%); format: functional
ASPC1 [13] = experiment: Downregulation of Mcl1 in human AsPC1 cells at 2 to 10 uM after 24 hrs by Western blot analysis; format: functional, cell-based
ASPC1 [14] = experiment: Induction of apoptosis in human AsPC1 cells assessed as sub-G1 phase cells at 2 uM after 24 hrs by flow cytometric analysis (reference value: 1%); format: functional
ASPC1 [15] = experiment: Cell cycle arrest in human AsPC1 cells assessed as G1 phase cells at 6 uM after 24 hrs by flow cytometric analysis (reference value: 25.4%); format: functional
ASPC1 [16] = experiment: Cell cycle arrest in human AsPC1 cells assessed as G1 phase cells at 8 uM after 24 hrs by flow cytometric analysis (reference value: 25.4%); format: functional
ASPC1 [17] = experiment: Induction of apoptosis in human AsPC1 cells assessed as sub-G1 phase cells at 6 uM after 24 hrs by flow cytometric analysis (reference value: 1%); format: functional
ASPC1 [18] = experiment: Upregulation of NOXA in human AsPC1 cells at 6 to 10 uM after 24 hrs by Western blot analysis; format: functional, cell-based
ASPC1 [19] = experiment: Upregulation of p21 in human AsPC1 cells at 6 to 10 uM after 24 hrs by Western blot analysis; format: functional, cell-based
ASPC1 [20] = experiment: Cell cycle arrest in human AsPC1 cells assessed as G1 phase cells at 10 uM after 24 hrs by flow cytometric analysis (reference value: 25.4%); format: functional
ASPC1 [21] = experiment: Cell cycle arrest in human AsPC1 cells assessed as G2/M phase cells at 10 uM after 24 hrs by flow cytometric analysis (reference value: 20.7%); format: functional
ASPC1 [22] = experiment: Cell cycle arrest in human AsPC1 cells assessed as S phase cells at 2 uM after 24 hrs by flow cytometric analysis (reference value: 12.6%); format: functional
ASPC1 [23] = experiment: Induction of apoptosis in human AsPC1 cells assessed as sub-G1 phase cells at 4 uM after 24 hrs by flow cytometric analysis (reference value: 1%); format: functional
ASPC1 [24] = experiment: Induction of apoptosis in human AsPC1 cells assessed as sub-G1 phase cells at 10 uM after 24 hrs by flow cytometric analysis (reference value: 1%); format: functional
ASPC1 [25] = experiment: Induction of apoptosis in human AsPC1 cells assessed as sub-G1 phase cells at 8 uM after 24 hrs by flow cytometric analysis (reference value: 1%); format: functional
ASPC1 [26] = experiment: Ratio of ursolic acid IC50 to compound IC50 for human AsPC1 cells; format: functional

With C[C@H]1[C@H](C)CC[C@]2(C(=O)O)CC[C@]3(C)C(=CC[C@@H]4[C@@]5(C)CC[C@H](O)C(C)(C)[C@@H]5CC[C@]43C)[C@H]12 [URSOLIC ACID] the IC50 (HepG2) was 15 µM, the IC50 (PC-3) was 20.8 µM and the IC50 (MIA PaCa-2) was 10.4 µM. For the same molecule, the IC50 (PANC-1) was 14.9 µM, the IC50 (A549) was 11.4 µM and the IC50 (MCF7) was 12.3 µM. The IC50 (ASPC1 [1]) was 12.6 µM.

COC(=O)[C@]12CC[C@@H](C)[C@H](C)[C@H]1C1=CC(=O)[C@@H]3[C@@]4(C)C/C(=C/n5ccnc5)C(=O)C(C)(C)[C@@H]4CC[C@@]3(C)[C@]1(C)CC2 gave an IC50 (HepG2) of 27.6 µM, an IC50 (PC-3) of 12.9 µM and an IC50 (MIA PaCa-2) of 24.3 µM. The IC50 (PANC-1) was 18.2 µM, the IC50 (A549) was 12.2 µM and the IC50 (MCF7) was 9.4 µM. It also gave an IC50 (ASPC1 [1]) of 2.3 µM.

COC(=O)[C@]12CC[C@@H](C)[C@H](C)[C@H]1C1=CC(=O)[C@@H]3[C@@]4(C)C/C(=C/n5cnnc5)C(=O)C(C)(C)[C@@H]4CC[C@@]3(C)[C@]1(C)CC2 showed an IC50 (HepG2) of 7.9 µM, an IC50 (PC-3) of 9.5 µM and an IC50 (MIA PaCa-2) of 7.8 µM. The IC50 (PANC-1) was 12.1 µM, the IC50 (A549) was 12.9 µM and the IC50 (MCF7) was 12.5 µM. For the same molecule, the IC50 (ASPC1 [1]) was 8.1 µM.

COC(=O)[C@]12CC[C@@H](C)[C@H](C)[C@H]1C1=CC[C@@H]3[C@@]4(C)C/C(=C/n5cnnc5)C(=O)C(C)(C)[C@@H]4CC[C@@]3(C)[C@]1(C)CC2 gave an Activity (ASPC1 [2]) of 14.7%, an Activity (ASPC1 [3]) of 10.1% and an IC50 (HepG2) of 3.2 µM. The Activity (ASPC1 [4]) was 27.9%, the Activity (ASPC1 [5]) was 23.4% and the IC50 (PC-3) was 3 µM. For the same molecule, the Activity (ASPC1 [6]) was 9.6%, the Activity (ASPC1 [7]) was 24.1% and the IC50 (MIA PaCa-2) was 4 µM. The Activity (ASPC1 [8]) was 9.5%, the Activity (ASPC1 [9]) was 14.9% and the IC50 (PANC-1) was 3.5 µM. For the same molecule, the Activity (ASPC1 [10]) was “Active”, the Activity (ASPC1 [11]) was 23.9% and the Activity (ASPC1 [12]) was 10.5%. For the same molecule, the Activity (ASPC1 [13]) was “inactive”, the Activity (ASPC1 [14]) was 0.7% and the Activity (ASPC1 [15]) was 36.6%. The Activity (ASPC1 [16]) was 31.9%, the Activity (ASPC1 [17]) was 1.2% and the Activity (ASPC1 [18]) was “Active”. The IC50 (A549) was 4.9 µM, the Activity (ASPC1 [19]) was “Active” and the IC50 (MCF7) was 2.3 µM. It also gave an IC50 (ASPC1 [1]) of 1.9 µM, an Activity (ASPC1 [20]) of 27.3% and an Activity (ASPC1 [21]) of 28.8%. For the same molecule, the Activity (ASPC1 [22]) was 9.1%, the Activity (ASPC1 [23]) was 0.5% and the Activity (ASPC1 [24]) was 13.2%. For the same molecule, the Activity (ASPC1 [25]) was 3.4% and the “Ratio IC50” value (ASPC1 [26]) was 7.

COC(=O)[C@]12CC[C@@H](C)[C@H](C)[C@H]1C1=CC(=O)[C@@H]3[C@@]4(C)C/C(=C/n5ccnc5C)C(=O)C(C)(C)[C@@H]4CC[C@@]3(C)[C@]1(C)CC2 showed an IC50 (HepG2) of 8.5 µM, an IC50 (PC-3) of 5.7 µM and an IC50 (MIA PaCa-2) of 8.3 µM. The IC50 (PANC-1) was 14.4 µM, the IC50 (A549) was 18.7 µM and the IC50 (MCF7) was 3.5 µM. It also gave an IC50 (ASPC1 [1]) of 2.1 µM.

Work on COC(=O)[C@]12CC[C@@H](C)[C@H](C)[C@H]1C1=CC[C@@H]3[C@@]4(C)C/C(=C/n5ccnc5C)C(=O)C(C)(C)[C@@H]4CC[C@@]3(C)[C@]1(C)CC2 yielded an IC50 (HepG2) of 4 µM, an IC50 (PC-3) of 3.5 µM and an IC50 (MIA PaCa-2) of 5.6 µM. It also gave an IC50 (PANC-1) of 5.6 µM, an IC50 (A549) of 5.3 µM and an IC50 (MCF7) of 2.2 µM. It also gave an IC50 (ASPC1 [1]) of 2.1 µM.

In the case of COC(=O)[C@]12CC[C@@H](C)[C@H](C)[C@H]1C1=CC[C@@H]3[C@@]4(C)C/C(=C/n5ccnc5)C(=O)C(C)(C)[C@@H]4CC[C@@]3(C)[C@]1(C)CC2, the IC50 (HepG2) is reported as 2 µM, the IC50 (PC-3) is reported as 6.8 µM and the IC50 (MIA PaCa-2) is reported as 7.3 µM. It also gave an IC50 (PANC-1) of 5.1 µM, an IC50 (A549) of 5.6 µM and an IC50 (MCF7) of 5.3 µM. The IC50 (ASPC1 [1]) was 5.8 µM.

CC(=O)O[C@H]1CC[C@]2(C)[C@H]3CC=C4[C@@H]5[C@@H](C)[C@H](C)CC[C@]5(C(=O)n5ccnc5C)CC[C@@]4(C)[C@]3(C)CC[C@H]2C1(C)C showed an IC50 (ASPC1 [1]) of 20.2 µM.

For CC(=O)O[C@H]1CC[C@]2(C)[C@H]3C(=O)C=C4[C@@H]5[C@@H](C)[C@H](C)CC[C@]5(C(=O)n5ccnc5)CC[C@@]4(C)[C@]3(C)CC[C@H]2C1(C)C, the IC50 (ASPC1 [1]) was 13.9 µM.

Work on Cc1nccn1C(=O)[C@]12CC[C@@H](C)[C@H](C)[C@H]1C1=CC(=O)[C@@H]3[C@@]4(C)CCC(=O)C(C)(C)[C@@H]4CC[C@@]3(C)[C@]1(C)CC2 yielded an IC50 (ASPC1 [1]) of 5.1 µM.

CC(=O)O[C@H]1CC[C@]2(C)[C@H]3CC=C4[C@@H]5[C@@H](C)[C@H](C)CC[C@]5(C(=O)n5ccnc5)CC[C@@]4(C)[C@]3(C)CC[C@H]2C1(C)C showed an IC50 (ASPC1 [1]) of 15.2 µM.
